Data from US20150148234A1, “HERBICIDE-RESISTANT SUNFLOWER PLANTS WITH MULTIPLE HERBICIDE RESISTANT ALLELES OF AHASL1 AND METHODS OF USE” (NIDERA S.A., priority 2013, published 2015).
Values joined by “and” are separate entries in the source; they are usually repeats but may differ in a detail not shown here. Equal entries are not always repeated. Marks after values point to notes of the source that are not given here.

Experiments:
Test in all cases: metsulfuron whole plant greenhouse test (Example 5)
Assay type in all cases: in vivo
[1] = test system: sunflower cmsGM40xBTSu-R1, A122T/P197L; details: 14 DAT; for Dry Matter accumulation (DMA) / Mean Height Reduction (PH): percentage of untreated control
Protocol: (§1) Seeds were sown in Petri dishes and, after germination, plantlets were transplanted into 10 cm pots containing potting media consisting of equal parts of vermiculite, soil, and sand. Plants were grown in the greenhouse under natural light conditions supplemented with 400 W sodium halide lamps to provide a 16 hr daylength. Day/night temperatures were 25 and 20° C., respectively. At the V2-V4 stage (Schneiter & Miller, 1981) 20 plants of each genotype were randomly assigned to each treatment consisting of three metsulfuron methyl doses (0 or no treatment, 5 g ai/ha or a 1× rate, and 10 g ai/ha or a 2× rate). A zero-time biomass determination was also conducted. The experiment was arranged as a randomized complete block design (RCBD) with a full factorial arrangement of treatments and 20 replications (sunflower line×treatment).
(§2) For the zero-time dried weight determination, ten plants of each genotype were cut at the cotyledonal node on the day of herbicide application and dried at 60° C. for 48 hr. The rest of the plants were maintained for 14 days after herbicide treatment (DAT) and their height, Phytotoxicity Index (PI) and above ground dry biomass were recorded. Height was determined as the distance between the cotyledonal node and the apex of each plant. The above ground biomass data for each line was converted to biomass accumulation after application by subtracting the appropriate average zero-time biomass from each sample. Height and dry biomass were converted to a percentage of the untreated control for each line to allow direct comparisons between groups.
(§3) The data was subjected to an ANOVA and the means were compared by an LSD test.

[2] = test system: sunflower cmsGM40xL4, A122T/A122T; details: 14 DAT; for Dry Matter accumulation (DMA) / Mean Height Reduction (PH): percentage of untreated control
Protocol: as §1, §2, §3

sunflower line B770, WT = details: 14 DAT
Protocol: as §1, §2, §3

[3] = test system: sunflower line BTSu-R1, P197L/P197L; details: 14 DAT, percentage of untreated control
Protocol: as §1, §2, §3

[4] = test system: sunflower line GM1606, A122T/A122T; details: 14 DAT; for Dry Matter accumulation (DMA) / Mean Height Reduction (PH): percentage of untreated control
Protocol: as §1, §2, §3

[5] = test system: sunflower line GM40, A122T/A122T; details: 14 DAT; for Dry Matter accumulation (DMA) / Mean Height Reduction (PH): percentage of untreated control
Protocol: as §1, §2, §3

[6] = test system: sunflower line L4, A122T/A122T; details: 14 DAT; for Dry Matter accumulation (DMA) / Mean Height Reduction (PH): percentage of untreated control
Protocol: as §1, §2, §3

[7] = 2X (10 g ai./ha), percentage of untreated control

`COC(=O)c1ccccc1S(=O)(=O)NC(=O)Nc1nc(C)nc(OC)n1` [metsulfuron] was tested, and the “Phytotoxicity Index (PI) (0-9)” value ([1]; 1X (5g ai./ha)) was 0.00 ^a, the “Dry Matter accumulation (DMA)” value ([1]; 1X (5g ai./ha)) was 74.4% and 74.36 ^c % and the “Mean Height Reduction (PH)” value ([1]; 1X (5g ai./ha)) was 77.04 ^b %. For the same compound, the “Dry Matter accumulation (DMA)” value ([1]; 2X (10 g ai./ha)) was 72.66 ^c %, the “Mean Height Reduction (PH)” value ([1]; 2X (10 g ai./ha)) was 62% and 61.99 ^b % and the “Phytotoxicity Index (PI) (0-9)” value ([2]; 1X (5g ai./ha)) was 8.67 ^d. The “Dry Matter accumulation (DMA)” value ([2]; 1X (5g ai./ha)) was 19.90 ^a %, the “Mean Height Reduction (PH)” value ([2]; 1X (5g ai./ha)) was 22.45 ^a % and the “Phytotoxicity Index (PI) (0-9)” value ([2]; 2X (10 g ai./ha)) was 8.82 ^cd. For the same compound, the “Dry Matter accumulation (DMA)” value ([2]; 2X (10 g ai./ha)) was 18.23 ^a %, the “Mean Height Reduction (PH)” value ([2]; 2X (10 g ai./ha)) was 20.56 ^a % and the “Phytotoxicity Index (PI) (0-9)” value (sunflower line B770, WT; 1X (5g ai./ha)) was 8.50 ^bc. The “Dry Matter accumulation (DMA)” value (sunflower line B770, WT; 1X (5g ai./ha), percentage of untreated control) was 28.43 ^b %, the “Phytotoxicity Index (PI) (0-9)” value (sunflower line B770, WT; 2X (10 g ai./ha)) was 9.00 ^d and the “Dry Matter accumulation (DMA)” value (sunflower line B770, WT; [7]) was 28.77 ^b %. The “Mean Height Reduction (PH)” value (sunflower line B770, WT; [7]) was 18.20 ^a %, the “Dry Matter accumulation (DMA)” value ([3]; 1X (5g ai./ha)) was 88% and 88.1% and 88.10 ^d % and the “Plant height, % of untreated control” value ([3]; 1X (5g ai./ha)) was 79.01 ^b %. For the same compound, the “Dry Matter accumulation (DMA)” value ([3]; 2X (10 g ai./ha)) was 77% and 76.69 ^c %, the “Plant height, % of untreated control” value ([3]; 2X (10 g ai./ha)) was 80.85 ^c % and the “Phytotoxicity Index (PI) (0-9)” value ([4]; 1X (5g ai./ha)) was 8.70 ^d. For the same compound, the “Dry Matter accumulation (DMA)” value ([4]; 1X (5g ai./ha)) was 30.39 ^b %, the “Mean Height Reduction (PH)” value ([4]; 1X (5g ai./ha)) was 21.55 ^a % and the “Phytotoxicity Index (PI) (0-9)” value ([4]; 2X (10 g ai./ha)) was 9.00 ^d. For the same compound, the “Dry Matter accumulation (DMA)” value ([4]; 2X (10 g ai./ha)) was 20.45 ^a %, the “Mean Height Reduction (PH)” value ([4]; 2X (10 g ai./ha)) was 21.70 ^a % and the “Phytotoxicity Index (PI) (0-9)” value ([5]; 1X (5g ai./ha)) was 9.00 ^d. The “Dry Matter accumulation (DMA)” value ([5]; 1X (5g ai./ha)) was 25.73 ^ab %, the “Mean Height Reduction (PH)” value ([5]; 1X (5g ai./ha)) was 21.39 ^a % and the “Phytotoxicity Index (PI) (0-9)” value ([5]; 2X (10 g ai./ha)) was 9.00 ^d. The “Dry Matter accumulation (DMA)” value ([5]; 2X (10 g ai./ha)) was 20.69 ^a %, the “Mean Height Reduction (PH)” value ([5]; 2X (10 g ai./ha)) was 21.17 ^a % and the “Phytotoxicity Index (PI) (0-9)” value ([6]; 1X (5g ai./ha)) was 8.25 ^b. The “Dry Matter accumulation (DMA)” value ([6]; 1X (5g ai./ha)) was 25.40 ^ab %, the “Mean Height Reduction (PH)” value ([6]; 1X (5g ai./ha)) was 19.47 ^a % and the “Phytotoxicity Index (PI) (0-9)” value ([6]; 2X (10 g ai./ha)) was 8.5 ^c. The “Dry Matter accumulation (DMA)” value ([6]; 2X (10 g ai./ha)) was 18.80 ^a % and the “Mean Height Reduction (PH)” value ([6]; 2X (10 g ai./ha)) was 18.73 ^a %.
